Reference: US20250290099A1, “MATERIALS AND METHODS FOR TARGETED GENETIC MANIPULATIONS IN CELLS” (The Regents of the University of California, priority 2021, published 2025)

Experiments:
primary human T cells [1] = test: CD5-HA knock-in with short ssDNA HDRT, knock-in efficiency by flow cytometry; type: cell-based; conditions: short ssDNA CD5-HA knock-in construct, optimal concentrations, inhibitors for 24 hours after electroporation
From the text: (a) Evaluation of relative increase in % knock-in using an ssDNA CD5-HA knock-in construct over varied concentrations of 5 different small molecule inhibitors assessed by flow cytometry. […] (b) Comparison of relative % knock-in (top) and live cell counts (bottom) with small molecule inhibitor combinations. […] Panel a, b, and d were each performed with T cells from 2 independent healthy human blood donors. […] Error bars indicate standard deviation. CTS=Cas9 Target Site, HDRT=homology-directed-repair template, dsCTS=dsDNA+CTS HDRT, ssCTS=ssDNA+CTS HDRT, TSA=Trichostatin A, HDR Enhancer=IDT Alt-R HDR Enhancer, MT=M3814+TSA, MTX=M3814+TSA+XL413.
(§2) Trichostatin A (TSA) (Cayman Chemical), Nedisertib (M3814) (MedKoo Biosciences), XL413 hydrochloride (XL413) (Fisher Scientific), NU7441 (Fisher Scientific), and Alt-R HDR enhancer (IDT) were prepared and stored as aliquots per manufacturer guidelines. For experiments using small molecule inhibitors, cells were incubated with the indicated concentrations upon addition of fresh growth media following the 15 minute rescue step, and removed by media exchange after 24 hours.

CD5 target locus = test: Amplicon sequencing of the CD5 target locus, repair outcomes; type: cell-based, human; conditions: small CD5-HA templates
From the text: We further examined repair outcomes at the genetic level by amplicon sequencing of the CD5 target locus with different versions of the small CD5-HA templates and inhibitor cocktails. […] The ratio of perfect:imperfect HDR events was also similar across the different types of templates. Intriguingly, […] […] Inclusion of HDR templates was associated with preferential reduction in the larger deletions characteristic of MMEJ (while smaller indels characteristic of NHEJ were more refractory in the absence of DNA-PK inhibition), in agreement with recent reports.

primary human T cells [2] = test: Live cell counts after electroporation with small molecule inhibitors; type: cell-based
Procedure: (d) Evaluation of live cell counts with MT and MTX inhibitor combinations using 44 different knock-in constructs targeting a tNGFR marker across 22 different target loci with 2 gRNA per gene (g1 and g2). Panel a, b, and d were each performed with T cells from 2 independent healthy human blood donors. Panel c was performed with T cells from 4-6 independent healthy human blood donors. Error bars indicate standard deviation. CTS=Cas9 Target Site, HDRT=homology-directed-repair template, dsCTS=dsDNA+CTS HDRT, ssCTS=ssDNA+CTS HDRT, TSA=Trichostatin A, HDR Enhancer=IDT Alt-R HDR Enhancer, MT=M3814+TSA, MTX=M3814+TSA+XL413.
as §2

primary human T cells [3] = type: cell-based; conditions: ssCTS tNGFR template +/- MT and MTX
From the text: (a) Knock-in efficiencies for constructs targeting a tNGFR marker to 22 different target genome loci. (b-d) Comparison of large ssDNA and dsDNA HDRTs with CTS sites for knock-in of a pooled library of 2.6-3.6 kb polycistronic constructs targeted to the TRAC locus. Shown for each HDRT variation is (b) relative % knock-in in comparison to maximum for dsDNA+CTS templates, (c) relative knock-in cell count yields in comparison to maximum for dsDNA+CTS templates, and (d) representation of each library member in knock-in cells post-electroporation in comparison to construct representation the input plasmid pool. (e-g) Comparison of knock-in cell yields using ssDNA (red) and dsDNA HDRTs (blue) with CTS sites across a variety of primary human hematopoietic cell types. Note, different cell type comparisons are performed with different blood donors. All comparisons were performed using a knock-in construct generating an CLTA-mCherry fusion at the CLTA locus. Shown for each cell type using HDRT concentrations from 5-160 nM are (e) knock-in cell count yields, (f) maximum fold-change in knock-in count yields (relative to dsCTS templates), and (g) maximum % knock-in. […]
(a) Evaluation of relative increase in % knock-in using an ssDNA CD5-HA knock-in construct over varied concentrations of 5 different small molecule inhibitors assessed by flow cytometry. […]

IL2RA = test: TIDE indel analysis, RNPs targeting exon 1 of IL2RA +/- M3814 and TSA; type: cell-based, human; conditions: with addition of M3814 and TSA
Procedure: Media was refreshed after 24 hours in all samples, and cells were resuspended in growth media and IL-2. Six days after electroporations, genomic DNA was isolated from samples and amplicons were generated using PCR. Amplicons were sequenced and analyzed using TIDE (Tracking of Indels by Decomposition) to determine distinct changes in indel spectrums.

CTLA4 protein = test: CTLA4 gRNA screen: protein disruption by CTLA4 flow cytometric analysis; type: cell-based, human; conditions: activated CD4+ T cells, flow cytometry
Procedure: Flow Cytometry. All flow cytometry was performed on an Attune NxT flow cytometer with a 96-well autosampler (Thermo Fisher Scientific). Unless otherwise indicated, cells were collected 3-5 days post-electroporation, resuspended in FACS buffer (1%-2% BSA in PBS) and stained with Ghost Dye red 780 (Tonbo) and the indicated cell-surface and intracellular markers (see Table 2 for antibodies). For intracellular staining, cells were stained for surface markers and then prepared for intracellular staining using True-Nuclear Transcription Factor staining kits (Biolegend). […] Analysis was done using FlowJo v10 software. All gating strategies included exclusion of subcellular debris, singlet gating, and live:dead stain. Final graphs were produced with Prism (GraphPad), and figures were compiled with Illustrator (Adobe).
(§1) As a further example, we examined an ORF insertion within the CTLA4 gene (FIG. 8E). CTLA4 deficiency is caused most frequently by a haploinsufficiency with a disease-causing mutation on only 1 of 2 alleles. Exon-targeting strategies generate indels which could disrupt the normal allele and worsen disease. To avoid this possibility, we screened a panel of gRNA in intron 1, set forth in Table 3, to identify targets which cut efficiently without disrupting protein expression (FIG. 7B).

CTLA4 gene = test: CTLA4 gRNA screen: cutting efficiency by TIDE indel analysis; type: cell-based, human; conditions: TIDE indel analysis at target locus
From the text: as §1

Row | Compound | %CTLA4 protein loss above background (CTLA4 protein) [%] | %indel (CTLA4 gene) [%] | further results
1 | COc1ccc([C@@H](O)c2cc(-c3ncnc4cc(N5CCOCC5)ccc34)c(F)cc2Cl)nn1 [M3814, (S)-(2-chloro-4-fluoro-5-(7-morpholinoquinazolin-4-yl)phenyl)(6-methoxypyridazin-3-yl)methanol] | – | – | increase in knock-in efficiency (primary human T cells [1]): ~49%; repair outcomes: frequency of indels (CD5 target locus): decreased frequency of indels
2 | O=c1cc(N2CCOCC2)oc2c(-c3cccc4c3sc3ccccc34)cccc12 [NU7441, 8-(dibenzo[b,d]thiophen-4-yl)-2-morpholino-4H-chromen-4-one] | – | – | increase in knock-in efficiency (primary human T cells [1]): ~43%
3 | CC(/C=C/C(=O)NO)=C\[C@@H](C)C(=O)c1ccc(N(C)C)cc1 [TSA, [R-(E,E)]-7-[4-(dimethylamino)phenyl]-N-hydroxy-4,6-dimethyl-7-oxo-2,4-heptadienamide] | – | – | increase in knock-in efficiency (primary human T cells [1]): ~16%
4 | Cl.O=c1[nH]c([C@@H]2CCCN2)nc2c1oc1ccc(Cl)cc12 [XL413, (S)-8-chloro-2-(pyrrolidin-2-yl)benzofuro[3,2-d]pyrimidin-4(3H)-one hydrochloride] | – | – | increase in knock-in efficiency (primary human T cells [1]): ~46%; reduction in cell counts (primary human T cells [2]; Day 11): ~20%; reduction in cell counts (primary human T cells [2]; day 4 post-electroporation): ~50%
5 | CD7 g1: gRNA targeting CD7, TCAGCTGCACTCGCCCGGCT (SEQ ID NO: 17), with corresponding tNGFR ssCTS template (listed as DNA, chemistry not given here) | – | – | effect size of inhibitors: increase in knock-in efficiency (primary human T cells [3]): relatively little increase
6 | G377: crRNA/gRNA targeting IL2RA, TGAGCAGTCCCCACATCAGC (SEQ ID NO: 13) (listed as DNA, chemistry not given here) | – | – | cutting efficiency (IL2RA): not impacted
7 | G509: gRNA, CTLA4 exon 1, target sequence CCTTGTGCCGCTGAAATCCA (SEQ ID NO: 63) (listed as DNA, chemistry not given here) | 39.2 | 78.2 | –
8 | G510: gRNA, CTLA4 exon 1, target sequence CCTTGGATTTCAGCGGCACA (SEQ ID NO: 64) (listed as DNA, chemistry not given here) | 16.65 | 47.7 | –
9 | G511: gRNA, CTLA4 exon 1, target sequence GCACAAGGCTCAGCTGAACC (SEQ ID NO: 65) (listed as DNA, chemistry not given here) | 32.4 | 71.85 | –
10 | G512: gRNA, CTLA4 exon 1, target sequence CTCAGCTGAACCTGGCTACC (SEQ ID NO: 66) (listed as DNA, chemistry not given here) | 1.3 | 12.15 | –
11 | G513: gRNA, CTLA4 exon 1, target sequence TGAACCTGGCTACCAGGACC (SEQ ID NO: 67) (listed as DNA, chemistry not given here) | 10.2 | 23.7 | –
12 | G514: gRNA, CTLA4 exon 1, target sequence AGAAAAAACAGGAGAGTGCA (SEQ ID NO: 68) (listed as DNA, chemistry not given here) | 47.45 | 94.35 | –
13 | G515: gRNA, CTLA4 intron 1, target sequence TTGTATGCCAAACAGACTGG (SEQ ID NO: 69) (listed as DNA, chemistry not given here) | 0 | 79.25 | –
14 | G516: gRNA, CTLA4 intron 1, target sequence TGCATCTGAAACCCACACGT (SEQ ID NO: 70) (listed as DNA, chemistry not given here) | 0 | 61.95 | –
15 | G517: gRNA, CTLA4 intron 1, target sequence CTCTGAAGAGCTGAAAACTG (SEQ ID NO: 71) (listed as DNA, chemistry not given here) | 0 | 80.35 | –
16 | G519: gRNA, CTLA4 intron 1, target sequence ACATATTTCATGGTAGAGCC (SEQ ID NO: 73) (listed as DNA, chemistry not given here) | 0 | 89.65 | –
17 | G520: gRNA, CTLA4 intron 1, target sequence GATATGACAAACAGAAGACC (SEQ ID NO: 4) (listed as DNA, chemistry not given here) | 0 | 72.5 | –
18 | PI3KCD g2: gRNA targeting PI3KCD, TAACAACGCAGGATGCCCCC (SEQ ID NO: 38), with corresponding tNGFR ssCTS template (listed as DNA, chemistry not given here) | – | – | effect size of inhibitors: increase in knock-in efficiency (primary human T cells [3]): up to 7 fold
